Reference: patent US9216999B2, “Substituted pyrrolo[2,3-h][1,6]naphthyridines and compositions thereof as JAK inhibitors” (priority 2011, dated 2015)
Read-outs that look alike come from different tables or passages of the source.

Assays:
Type in all cases: biochemical
JAK3 = JAK3 (Homo sapiens (Human), UniProt P52333); experiment: Enzyme assay (Assay Example^a 1), JAK3
JAK1 = JAK1 (Homo sapiens (Human), UniProt P23458); experiment: Enzyme assay (Assay Example^a 1), JAK1; conditions: ATP 100 μM
JAK2 = JAK2 (Homo sapiens (Human), UniProt O60674); experiment: Enzyme assay (Assay Example^a 1), JAK2; conditions: ATP 100 μM
Tyk2 = Tyk2 (Homo sapiens (Human), UniProt P29597); experiment: Enzyme assay (Assay Example^a 1), Tyk2; conditions: ATP 100 μM
Chain of Tyk2 (P29597 whole entry): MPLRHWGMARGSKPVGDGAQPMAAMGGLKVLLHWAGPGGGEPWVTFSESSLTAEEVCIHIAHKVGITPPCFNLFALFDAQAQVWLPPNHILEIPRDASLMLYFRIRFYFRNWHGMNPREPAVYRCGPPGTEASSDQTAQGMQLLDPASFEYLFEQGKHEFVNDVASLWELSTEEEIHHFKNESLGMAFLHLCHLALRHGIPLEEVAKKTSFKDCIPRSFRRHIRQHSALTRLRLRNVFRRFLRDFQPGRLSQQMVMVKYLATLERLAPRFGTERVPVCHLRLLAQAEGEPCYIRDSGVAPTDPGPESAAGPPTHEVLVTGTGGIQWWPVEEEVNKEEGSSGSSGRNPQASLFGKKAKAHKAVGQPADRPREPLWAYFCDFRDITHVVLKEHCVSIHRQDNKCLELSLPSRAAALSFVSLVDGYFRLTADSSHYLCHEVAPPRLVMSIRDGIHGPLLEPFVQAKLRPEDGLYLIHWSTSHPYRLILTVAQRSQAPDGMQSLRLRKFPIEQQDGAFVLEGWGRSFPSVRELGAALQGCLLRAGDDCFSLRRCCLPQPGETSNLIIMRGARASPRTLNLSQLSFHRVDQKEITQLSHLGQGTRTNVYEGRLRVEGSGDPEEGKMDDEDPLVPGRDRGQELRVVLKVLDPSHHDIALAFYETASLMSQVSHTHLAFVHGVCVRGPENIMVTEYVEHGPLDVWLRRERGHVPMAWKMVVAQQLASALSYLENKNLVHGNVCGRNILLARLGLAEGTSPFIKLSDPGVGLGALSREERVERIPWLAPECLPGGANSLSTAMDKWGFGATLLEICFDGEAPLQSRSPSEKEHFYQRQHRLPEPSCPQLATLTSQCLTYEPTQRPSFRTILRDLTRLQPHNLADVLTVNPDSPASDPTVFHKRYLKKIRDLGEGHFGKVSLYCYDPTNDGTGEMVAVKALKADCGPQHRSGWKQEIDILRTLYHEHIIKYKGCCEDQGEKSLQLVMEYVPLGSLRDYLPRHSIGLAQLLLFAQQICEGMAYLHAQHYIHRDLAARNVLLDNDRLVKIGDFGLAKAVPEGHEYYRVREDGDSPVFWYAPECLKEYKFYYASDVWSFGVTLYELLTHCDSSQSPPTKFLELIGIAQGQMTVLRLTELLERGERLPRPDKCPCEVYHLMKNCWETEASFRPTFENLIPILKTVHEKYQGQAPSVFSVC

Chain of JAK3 (P52333 whole entry): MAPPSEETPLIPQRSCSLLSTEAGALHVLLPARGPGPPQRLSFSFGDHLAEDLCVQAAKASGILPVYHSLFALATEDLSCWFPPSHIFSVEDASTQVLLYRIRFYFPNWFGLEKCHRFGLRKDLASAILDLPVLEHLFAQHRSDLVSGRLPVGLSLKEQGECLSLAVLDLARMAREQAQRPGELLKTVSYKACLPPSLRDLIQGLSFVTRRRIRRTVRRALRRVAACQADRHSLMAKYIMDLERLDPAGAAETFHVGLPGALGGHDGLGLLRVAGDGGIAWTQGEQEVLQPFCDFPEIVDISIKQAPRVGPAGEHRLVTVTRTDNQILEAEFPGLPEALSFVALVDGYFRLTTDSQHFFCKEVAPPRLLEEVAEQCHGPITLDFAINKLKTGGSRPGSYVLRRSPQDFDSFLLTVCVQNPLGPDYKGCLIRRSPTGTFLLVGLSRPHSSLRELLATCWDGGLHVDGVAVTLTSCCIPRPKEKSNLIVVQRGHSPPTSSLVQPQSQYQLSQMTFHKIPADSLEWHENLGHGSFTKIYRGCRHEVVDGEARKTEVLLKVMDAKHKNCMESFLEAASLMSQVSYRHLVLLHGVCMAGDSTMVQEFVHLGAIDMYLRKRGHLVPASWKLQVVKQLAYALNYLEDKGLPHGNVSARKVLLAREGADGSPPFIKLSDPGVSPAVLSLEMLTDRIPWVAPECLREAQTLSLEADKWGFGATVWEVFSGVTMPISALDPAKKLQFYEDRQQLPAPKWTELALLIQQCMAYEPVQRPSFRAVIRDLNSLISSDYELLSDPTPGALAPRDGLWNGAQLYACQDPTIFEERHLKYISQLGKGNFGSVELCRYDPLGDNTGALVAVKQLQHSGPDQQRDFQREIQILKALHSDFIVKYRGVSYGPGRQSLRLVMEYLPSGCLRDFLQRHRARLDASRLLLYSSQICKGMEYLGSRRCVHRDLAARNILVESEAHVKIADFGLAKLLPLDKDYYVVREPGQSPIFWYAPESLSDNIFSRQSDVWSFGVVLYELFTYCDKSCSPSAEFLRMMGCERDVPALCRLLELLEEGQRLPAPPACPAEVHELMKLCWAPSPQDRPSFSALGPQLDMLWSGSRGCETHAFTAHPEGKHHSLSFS

| IC50 (JAK3; ATP 100 μM) [µM] | IC50 (JAK1) [µM] | IC50 (JAK2) [µM] | IC50 (Tyk2) [µM] | Compound | IC50 (JAK3; ATP 100 μM, Table^a 154) [µM] | IC50 (JAK1; Table^a 154) [µM] | IC50 (JAK2; Table^a 154) [µM] | IC50 (Tyk2; Table^a 154) [µM] | IC50 (JAK3) [µM] |
| --- | --- | --- | --- | --- | --- | --- | --- | --- | --- |
| – | – | – | – | Fc1ccc(CCNC[C@H]2CC[C@H](c3nnn4cnc5[nH]ccc5c34)CC2)cc1 [compound 111] | 0.22 | 0.0019 | 0.027 | 0.028 | – |
| 0.54 | 0.0053 | 0.031 | 0.14 | N#C/C=C/[C@H]1CC[C@H](c2nnn3cnc4[nH]ccc4c23)CC1 [compound 440, (E)-3-[trans-4-(7H-Pyrrolo[3,2-e][1,2,3]triazolo[1,5-c]pyrimidin-1-yl)cyclohexyl]acrylonitrile] | – | – | – | – | – |
| 0.23 | 0.0043 | 0.023 | 0.61 | Clc1ccc(CN2CCC(c3nnn4cnc5[nH]ccc5c34)CC2)c(Cl)n1 [compound 231, 1-{1-[(2,6-dichloropyridin-3-yl)methyl]piperidin-4-yl}-7H-pyrrolo[3,2-e][1,2,3]triazolo[1,5-c]pyrimidine] | – | – | – | – | – |
| 0.035 | 0.0015 | 0.011 | 0.53 | O=C(CC(F)(F)F)NC[C@H]1CC[C@H](c2nnn3cnc4[nH]ccc4c23)CC1 [compound 373, N-{[trans-4-(7H-Pyrrolo[3,2-e][1,2,3]triazolo[1,5-c]pyrimidin-1-yl)cyclohexyl]methyl}-3,3,3-trifluoropropanamide] | – | – | – | – | – |
| 0.59 | 0.0047 | 0.045 | 0.91 | N#Cc1ccc(NC[C@H]2CC[C@H](c3nnn4cnc5[nH]ccc5c34)CC2)cc1C#N [compound 262, 4-({[trans-4-(7H-pyrrolo[3,2-e][1,2,3]triazolo[1,5-c]pyrimidin-1-yl)cyclohexyl]methyl}amino)phthalonitrile] | – | – | – | – | – |
| 0.52 | 0.012 | 0.068 | 0.39 | c1cc2c(ncn3nnc([C@H]4CC[C@H](CNC5CSC5)CC4)c23)[nH]1 [compound 344, N-{[trans-4-(7H-pyrrolo[3,2-e][1,2,3]triazolo[1,5-c]pyrimidin-1-yl)cyclohexyl]methyl}thietan-3-amine] | – | – | – | – | – |
| 0.53 | 0.0071 | 0.024 | 0.16 | c1cc2c(ncn3nnc([C@H]4CC[C@H](CN5CCSC5)CC4)c23)[nH]1 [compound 254, 3-{[trans-4-(7H-pyrrolo[3,2-e][1,2,3]triazolo[1,5-c]pyrimidin-1-yl)cyclohexyl]methyl}thiazolidine] | – | – | – | – | – |
| 0.055 | 0.00079 | 0.0046 | 0.11 | Brc1ccc(CN2CCC(c3nnn4cnc5[nH]ccc5c34)CC2)s1 [compound 238, 1-{1-[(5-bromothiophen-2-yl)methyl]piperidin-4-yl}-7H-pyrrolo[3,2-e][1,2,3]triazolo[1,5-c]pyrimidine] | – | – | – | – | – |
| 0.04 | 0.0026 | 0.013 | 0.29 | Clc1ccc(CN2CCC(c3nnn4cnc5[nH]ccc5c34)CC2)cn1 [compound 214, 1-{1-[(6-chloropyridin-3-yl)methyl]piperidin-4-yl}-7H-pyrrolo[3,2-e][1,2,3]triazolo[1,5-c]pyrimidine] | – | – | – | – | – |
| > 1 | 0.02 | 0.063 | 0.43 | OC1CCN(C[C@H]2CC[C@H](c3nnn4cnc5[nH]ccc5c34)CC2)CC1 [compound 271, 1-{[trans-4-(7H-pyrrolo[3,2-e][1,2,3]triazolo[1,5-c]pyrimidin-1-yl)cyclohexyl]methyl}piperidin-4-ol] | – | – | – | – | – |
| 0.15 | 0.0038 | 0.012 | 0.046 | c1cc2c(ncn3nnc(C4CCCCC4)c23)[nH]1 [compound 6] | – | – | – | – | – |
| – | – | – | – | c1ccc(CN[C@H]2CC[C@@H](c3nnn4cnc5[nH]ccc5c34)CC2)cc1 [194a, cis-N-benzyl-4-(7H-pyrrolo[3,2-e][1,2,3]triazolo[1,5-c]pyrimidin-1-yl)cyclohexanamine] | > 1 | 0.032 | 0.74 | 0.33 | – |
| 0.47 | 0.0013 | 0.016 | 0.62 | FC(F)(F)C(NC[C@H]1CC[C@H](c2nnn3cnc4[nH]ccc4c23)CC1)C(F)(F)F [compound 317, N-{[trans-4-(7H-pyrrolo[3,2-e][1,2,3]triazolo[1,5-c]pyrimidin-1-yl)cyclohexyl]methyl}-1,1,1,3,3,3-hexafluoropropan-2-amine] | – | – | – | – | – |
| – | – | – | – | FC(F)(F)C1CCC(N2CCC(c3nnn4cnc5[nH]ccc5c34)CC2)CC1 (single isomer, unassigned) [56b] | > 1 | 0.035 | 0.6 | > 1 | – |
| 0.14 | 0.0011 | 0.0066 | 0.044 | O=C1SCCC1NC[C@H]1CC[C@H](c2nnn3cnc4[nH]ccc4c23)CC1 (stereo partly drawn) [compound 253, 3-({[trans-4-(7H-pyrrolo[3,2-e][1,2,3]triazolo[1,5-c]pyrimidin-1-yl)cyclohexyl]methyl}amino)dihydrothiophen-2(3H)-one] | – | – | – | – | – |
| 0.92 | 0.019 | 0.032 | 0.84 | N#CCC(=O)N(C[C@H]1CC[C@H](c2nnn3cnc4[nH]ccc4c23)CC1)C1CC1 [compound 409, N-{[trans-4-(7H-pyrrolo[3,2-e][1,2,3]triazolo[1,5-c]pyrimidin-1-yl)cyclohexyl]methyl}-2-cyano-N-cyclopropylacetamide] | – | – | – | – | – |
| – | – | – | – | O=C1NCCN1CCNC[C@H]1CC[C@H](c2nnn3cnc4[nH]ccc4c23)CC1 [compound 191, 1-[2-({[trans-4-(7H-pyrrolo[3,2-e][1,2,3]triazolo[1,5-c]pyrimidin-1-yl)cyclohexyl]methyl}amino)ethyl]imidazolidin-2-one] | 0.92 | 0.01 | 0.084 | 0.18 | – |
| 0.52 | 0.027 | 0.061 | 0.79 | O=C(C[C@H]1CC[C@@H](c2nnn3cnc4[nH]ccc4c23)CC1)NCC(F)(F)F [442a, 2-[cis-4-(7H-Pyrrolo[3,2-e][1,2,3]triazolo[1,5-c]pyrimidin-1-yl)cyclohexyl]-N-2,2,2-trifluoroethylacetamide] | – | – | – | – | – |
| > 1 | 0.0074 | 0.047 | 0.14 | CCNC[C@H]1CC[C@H](c2nnn3cnc4[nH]ccc4c23)CC1 [compound 330, N-{[trans-4-(7H-pyrrolo[3,2-e][1,2,3]triazolo[1,5-c]pyrimidin-1-yl)cyclohexyl]methyl}ethanamine] | – | – | – | – | – |

| Compound | IC50 (JAK3; ATP 100 μM) [µM] | IC50 (JAK1) [µM] | IC50 (JAK2) [µM] | IC50 (Tyk2) [µM] | IC50 (JAK3; ATP 100 μM, Table^a 154) [µM] | IC50 (JAK1; Table^a 154) [µM] | IC50 (JAK2; Table^a 154) [µM] | IC50 (Tyk2; Table^a 154) [µM] | IC50 (JAK3) [µM] |
| --- | --- | --- | --- | --- | --- | --- | --- | --- | --- |
| O[C@H]1CCCC[C@H]1CNC[C@H]1CC[C@H](c2nnn3cnc4[nH]ccc4c23)CC1 (relative stereo) [compound 312, cis-2-[({[trans-4-(7H-pyrrolo[3,2-e][1,2,3]triazolo[1,5-c]pyrimidin-1-yl)cyclohexyl]methyl}amino)methyl]cyclohexanol] | > 1 | 0.012 | 0.045 | 0.37 | – | – | – | – | – |
| c1cc2c(ncn3nnc(C4CCN(Cc5cscn5)CC4)c23)[nH]1 [compound 240, 4-{[4-(7H-pyrrolo[3,2-e][1,2,3]triazolo[1,5-c]pyrimidin-1-yl)piperidin-1-yl]methyl}thiazole] | 0.6 | 0.039 | 0.11 | > 1 | – | – | – | – | – |
| CN(CCO)C[C@H]1CC[C@H](c2nnn3cnc4[nH]ccc4c23)CC1 [compound 297, 2-({[trans-4-(7H-pyrrolo[3,2-e][1,2,3]triazolo[1,5-c]pyrimidin-1-yl)cyclohexyl]methyl}(methyl)amino)ethanol] | > 1 | 0.0095 | 0.1 | 0.32 | – | – | – | – | – |
| CN(C)[C@@H]1CCN(C[C@H]2CC[C@H](c3nnn4cnc5[nH]ccc5c34)CC2)C1 [compound 340, (R)-1-{[trans-4-(7H-pyrrolo[3,2-e][1,2,3]triazolo[1,5-c]pyrimidin-1-yl)cyclohexyl]methyl}-N,N-dimethylpyrrolidin-3-amine] | > 1 | 0.021 | 0.23 | > 1 | – | – | – | – | – |
| OC[C@@H]1CCCN1C[C@H]1CC[C@H](c2nnn3cnc4[nH]ccc4c23)CC1 [compound 266, ((S)-1-{[trans-4-(7H-pyrrolo[3,2-e][1,2,3]triazolo[1,5-c]pyrimidin-1-yl)cyclohexyl]methyl}pyrrolidin-2-yl)methanol] | > 1 | 0.025 | 0.11 | 0.35 | – | – | – | – | – |
| CCS(=O)(=O)N1CCN(C[C@H]2CC[C@H](c3nnn4cnc5[nH]ccc5c34)CC2)CC1 [compound 345, 1-(trans-4-{[4-(ethylsulfonyl)piperazin-1-yl]methyl}cyclohexyl)-7H-pyrrolo[3,2-e][1,2,3]triazolo[1,5-c]pyrimidine] | > 1 | 0.025 | 0.2 | > 1 | – | – | – | – | – |
| C(=C\c1ccco1)/CN1CCC(c2nnn3cnc4[nH]ccc4c23)CC1 [compound 215, (E)-1-{1-[3-(furan-2-yl)allyl]piperidin-4-yl}-7H-pyrrolo[3,2-e][1,2,3]triazolo[1,5-c]pyrimidine] | > 1 | 0.026 | 0.25 | > 1 | – | – | – | – | – |
| CC(C)(C)OC(=O)NCC1CCN(C[C@H]2CC[C@H](c3nnn4cnc5[nH]ccc5c34)CC2)CC1 [compound 336, tert-butyl [(1-{[trans-4-(7H-pyrrolo[3,2-e][1,2,3]triazolo[1,5-c]pyrimidin-1-yl)cyclohexyl]methyl}piperidin-4-yl)methyl]carbamate] | > 1 | 0.025 | 0.37 | > 1 | – | – | – | – | – |
| Brc1cc(CN2CCC(c3nnn4cnc5[nH]ccc5c34)CC2)sc1Br [compound 233, 1-{1-[(4,5-dibromothiophen-2-yl)methyl]piperidin-4-yl}-7H-pyrrolo[3,2-e][1,2,3]triazolo[1,5-c]pyrimidine] | – | 0.021 | 0.071 | > 1 | – | – | – | – | > 1 |
